Data: PubChem BioAssay (NCI)
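Values below derive from 48-hour exposures of cells grown in 96-well plates, with endpoints linearly interpolated between the two concentrations bracketing the appropriate inhibition level. GI50 = concentration required for 50% inhibition of growth. The concentration for full growth arrest is given as TGI.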

How the values were obtained:
Test in all cases: NCI anticancer screen, dose series, 48 h
A498 renal = test system: A498 renal
DU-145 prostate = test system: DU-145 prostate
HCC-2998 colon = test system: HCC-2998 colon
HOP-92 NSCLC = test system: HOP-92 NSCLC
HT29 colon = test system: HT29 colon
IGROV1 ovarian = test system: IGROV1 ovarian
K-562 leukemia = test system: K-562 leukemia
NCI-H23 lung = test system: NCI-H23 lung
NCI-H460 lung = test system: NCI-H460 lung
SNB-75 CNS = test system: SNB-75 CNS

SMILES | TGI (A498 renal) [µM] | TGI (DU-145 prostate) [µM] | TGI (HCC-2998 colon) [µM] | TGI (HOP-92 NSCLC) [µM] | TGI (HT29 colon) [µM] | TGI (IGROV1 ovarian) [µM] | TGI (K-562 leukemia) [µM] | TGI (NCI-H23 lung) [µM] | TGI (NCI-H460 lung) [µM] | TGI (SNB-75 CNS) [µM] | GI50 (A498 renal) [µM] | GI50 (HT29 colon) [µM] | GI50 (K-562 leukemia) [µM] | GI50 (NCI-H23 lung) [µM]
C/C(=N\Nc1nc2cc(C(F)(F)F)ccc2s1)c1ccccn1 | 7.61 | 3.98 | 18.3 | 8.15 | 1.81 | 3.99 | > 100 | 6.74 | 22.3 | 11.3 | – | – | – | –
CC(Oc1ccccc1Cl)C(=O)NN1C(=O)CSC1c1ccccc1 (centres undefined) | > 100 | > 100 | > 100 | > 100 | > 100 | > 100 | > 100 | > 100 | > 100 | > 100 | – | – | – | –
Cc1cc2c([nH]c3ccccc32)c(O)c1-c1c(C)cc2c([nH]c3ccccc32)c1O | 29.4 | 25.7 | 22.4 | 30.7 | 19.5 | 25.2 | 25.9 | 26.8 | 16.7 | 27.5 | 15.9 | 6.04 | 12.3 | 12.4
O=C(N/N=C/C=C/c1ccccc1)c1ccccc1Nc1ccccc1C(=O)N/N=C/C=C/c1ccccc1 | > 100 | > 100 | > 100 | > 100 | > 100 | > 100 | > 100 | > 100 | > 100 | > 100 | – | – | – | –
O=C1OC[C@H]2[C@@H]1[C@H]1O[C@@H]2C2=C(CCC2)C1=O | > 100 | > 100 | > 100 | > 100 | > 100 | > 100 | > 100 | > 100 | > 100 | > 100 | – | – | – | –
CC(C)C(C/C=C1\CC(CO)(COC(=O)C2CCCCC2)OC1=O)C(C)C (centres undefined) | > 100 | 26.9 | 65.1 | 37.5 | 79.5 | 39.5 | 55.6 | 40.2 | 76 | 26.5 | – | – | – | –
C/C(=N\Nc1nc2ccccc2n1C)c1cc2ccccc2cn1 | 1.47 | 8.08 | 41.9 | 3.86 | 3.54 | 0.423 | > 100 | 7.4 | 7.05 | 11.8 | – | – | – | –
CCCCCCCCCCCCCCCCCCNc1nc(=O)n(C2CC(O)C(COP(=O)(O)O)O2)cc1F (centres undefined) | > 100 | > 100 | > 100 | > 100 | > 100 | > 100 | > 100 | > 100 | > 100 | > 100 | – | – | – | –
NN=C(CC(O)(C(F)(F)Cl)C(F)(F)Cl)CC(O)(C(F)(F)Cl)C(F)(F)Cl | > 10 | > 10 | > 10 | > 10 | > 10 | > 10 | > 10 | > 10 | > 10 | > 10 | – | – | – | –
CC(=O)Nc1ccc(OC/C(N)=N/NC(=O)c2ccncc2)cc1 | > 100 | > 100 | > 100 | > 100 | > 100 | > 100 | > 100 | > 100 | > 100 | > 100 | – | – | – | –
CN(C)Cc1cc(C(=O)/C=C/c2ccccc2)cc(CN(C)C)c1O | 78.6 | > 100 | 64.8 | 67.4 | 41.4 | > 100 | 36.8 | > 100 | 44.8 | > 100 | – | – | – | –
C=C=C(CC(CC(=C)Br)(C(=O)OC)C(=O)OC)S(=O)(=O)c1ccccc1 | 14.7 | 3.35 | 9.18 | 3.97 | 2.95 | 5.52 | > 100 | 6.33 | 20.7 | 20.5 | – | – | – | –
COc1cccc(N=N/C(=N\NC(=O)c2ccc(C)cc2)c2ccc(N(CCC#N)CCC#N)cc2C)c1 | > 100 | > 100 | > 100 | > 100 | > 100 | > 100 | > 100 | > 100 | > 100 | > 100 | – | – | – | –
O=C(c1cccs1)N1CCN(C(=O)c2cccs2)C1=S | 32.1 | 7.7 | 22 | 20.7 | 21 | 19.6 | > 45.2 | 32.1 | 19.1 | 11.7 | – | – | – | –
N#Cc1cc2c(n(C3OC(CO)C(O)C(O)C3O)c1=S)CCCCCC2 (centres undefined) | > 100 | > 100 | > 100 | > 100 | > 100 | > 100 | > 100 | > 100 | > 100 | > 100 | – | – | – | –
